Patent US11713318B2, “Short conjugated oligoelectrolytes and uses thereof” (The Regents Of The University Of California, priority 2018, dated 2023)
Like-named read-outs stand apart in the source and are kept apart here.

Assays:
E. coli K12 (ATCC 47076) = test: MIC broth microdilution method, Table 3; conditions: Escherichia coli, ATCC47076
[1] = tested on: S. epidermidis (ATCC 14990); test: MIC broth microdilution method, Table 3; conditions: Staphylococcus epidermidis, ATCC14990
[2] = tested on: Hep G2 (ATCC HB-8065) cells; test: Cytotoxicity, MTT assay; format: cell-based; conditions: Homo sapiens, HepG2, 24 h
Description: (§1) Before removing the frozen cell stocks from liquid nitrogen, culture medium was pre-warmed to 37° C. The frozen tube was then removed from liquid nitrogen and placed into a 37° C. water bath and shaken gently to thaw the cell stock as quickly as possible. A small portion of the pre-warmed culture medium was added to the cell solution. The cell suspension was then centrifuged at 1000 r/min for 3 minutes. The supernatant was discarded and the cells were resuspended in fresh culture medium.
(§2) NIH 3T3 (ATCC CRL-1658) and Hep G2 (ATCC HB-8065) cells were cultured with DMEM+10% FBS in 100 mm dishes. Cells were lifted for subculture or testing when confluence reached ˜60% by treating with 1× trypsin (incubated for 3 min at 37° C.). J774 (ATCC TIB-67) cells were cultured with DMEM+10% FBS in 100 mm dishes. Cells were lifted for subculture or testing when confluence reached ˜80% using a cell scraper. RAW264.7 (ATCC TIB-71) cells were cultured with DMEM+10% heat-inactivated FBS+1% pen/strep in T75 flasks. Cells were lifted for subculture or testing when confluence reached ˜80% using a cell scraper.
(§3) • 1. Cells were lifted and resuspended in culture medium. The number of cells in the cell suspension was determined using an auto-cell counter: 10 μL of the cell suspension was mixed with 10 μL 1× trypan blue (filtered with 0.2 μm PES filter) and the mixture was loaded onto a cell counting slide. Based on the concentration of viable cells, the cell suspension was further diluted to achieve the desired density. • 2. Cells were seeded in 96 well plates by adding 100 μL final cell suspension column-by-column using a multichannel pipette (5000 cells/well for NIH 3T3, 10000 cells/well for Hep G2, J774 and RAW264.7). The outer wells were block with PBS to reduce the effects of evaporation. One column was filled with only culture medium as a blank. Cells were incubated overnight before adding the test articles. • 3. Test articles were dissolved in 1×PBS (or DMSO) to obtain stocks solution. Stock solutions were pre-warmed before use. […] Serial dilutions (2-fold) of the 10× solutions were made in sterile culture tubes by diluting in 1×PBS (8 dilutions to yield 9 test concentrations). 900 μL of culture media was added to each tube to obtain final drug solution containing 10% PBS (or less than 1% DMSO) for each experimental group. • 4. The original culture medium was gently removed from the 96-well plates using a pipette. 100 μL of the test article solutions prepared in Step 3 were added to rows 2-7 of each column to obtain six replicates for each concentration. Plates were then incubated for 24 hours. • 5. MTT solutions were prepared by dissolving commercial MTT powder in 1×PBS to a concentration of 5 mg/mL. After passing through a 0.22 μm PES filter, the MTT solution was divided into 1 mL portions in sterile centrifuge tubes and stored at −20° C. • 6. MTT stock solutions were removed from the freezer to thaw at room temperature. Before adding MTT solutions, cell cultures were visually inspected and imaged using a microscope (to use as a comparison with MTT results). 10 μL of the 5 mg/mL MTT solution was added to each well and the plate was incubated for 4 hours. • 7. After 4 h incubation, the culture medium/MT solution was removed gently using a pipette. 100 μL of DMSO was added to each well using a multichannel pipette. The 96-well plates were analyzed in a plate reader using the following method: shake for 5 minutes, wait for 30 seconds, and measure absorbance at 570 nm. • 8. Data processing: The average of background Abg was calculated from the blank column. All other data was first treated by subtracting Abg. The average A. and standard deviation Se of each experimental group and the average Ac and standard deviation Sc for control group (with pure culture medium incubation) were then calculated. The cell viability was determined as Ae/Ac×100% and corresponding error as Se/Ae×100%. Significant outliers in any experimental or control group were removed. […]

Cytotoxicity, MTT assay = format: cell-based; conditions: human, Hep G2, at the concentration given as IC50 bound, read-out: cell viability at the highest or lowest test concentration
Description: as §1, §2, §3

[3] = tested on: P. aeruginosa 1674623 (MDR); test: MIC against resistant strains, Tables 5a-5d; format: cell-based; conditions: Pseudomonas aeruginosa, n = 3
Description: (§4) Compounds described herein were evaluated for growth inhibition against a variety of bacterial species, including strains that have developed resistance to common antibacterial treatments, according to the procedure described herein, or by analogous procedures known to those skilled in the art. Resistant bacterial strains used for compound testing include methicillin-resistant S. aureus (MRSA), vancomycin resistant Enterococci (VRE) and various multi-drug resistant (MDR) strains commonly associated with hospital-acquired (nosocomial) infections, including, but not limited to A. baumannii, K. pnuemoniae, and E. cloacae.

E. faecium 1674620 (VRE) = test: MIC against resistant strains, Tables 5a-5d; format: cell-based; conditions: Enterococcus faecium, n = 3
Description: as §4

[4] = tested on: E. cloacae 1744299 (ESBL); test: MIC against resistant strains, Tables 5a-5d; format: cell-based; conditions: Enterobacter cloacae, n = 3
Description: as §4

[5] = tested on: K. pneumoniae ATCC BAA-2473 (MDR); test: MIC against resistant strains, Tables 5a-5d; format: cell-based; conditions: Klebsiella pneumoniae, ATCCBAA2473, n = 3
Description: as §4

E. coli ATCC25922 (WT) = test: MIC against resistant strains, Tables 5a-5d; format: cell-based; conditions: Escherichia coli, n = 3
Description: as §4

[6] = tested on: S. aureus ATCC 33591 (MRSA); test: MIC against resistant strains, Tables 5a-5d; format: cell-based; conditions: Staphylococcus aureus, n = 3
Description: as §4

[7] = tested on: A. baumannii 1674627 (MDR); test: MIC against resistant strains, Tables 5a-5d; format: cell-based; conditions: Acinetobacter baumannii, n = 3
Description: as §4

[8] = tested on: A. baumannii CDC0290 (MDR); test: MIC against resistant strains, Tables 5a-5d; format: cell-based; conditions: Acinetobacter baumannii, n = 3
Description: as §4

[9] = tested on: S. aureus ATCC BAA-1717 (MRSA); test: MIC against resistant strains, Tables 5a-5d; format: cell-based; conditions: Staphylococcus aureus, n = 3
Description: as §4

[10] = tested on: P. aeruginosa CDC0248 (MDR); test: MIC against resistant strains, Tables 5a-5d; format: cell-based; conditions: Pseudomonas aeruginosa, n = 3
Description: as §4

[11] = tested on: K. pneumoniae CDC0010 (MDR); test: MIC against resistant strains, Tables 5a-5d; format: cell-based; conditions: Klebsiella pneumoniae, n = 3
Description: as §4

[12] = tested on: NIH 3T3 (ATCC CRL-1658) cells; test: Cytotoxicity, MTT assay; format: cell-based; conditions: Mus musculus, NIH3T3; NIH 3T3; MTT, 24 hours incubation; read-out: IC50
Description: as §1, §2, §3

[13] = Hep G2, MTT, 24 hours incubation, read-out: IC50

`C[N+](C)(CCCOc1cc(/C=C/c2ccc(/C=C/c3cc(OCCC[N+](C)(C)CC(O)CO)cc(OCCC[N+](C)(C)CC(O)CO)c3)cc2)cc(OCCC[N+](C)(C)CC(O)CO)c1)CC(O)CO` (stereo not shown) [Formula OO] showed an MIC (E. coli K12 (ATCC 47076)) greater than 128 µg/mL, an MIC [1] greater than 64 µg/mL and an IC50 [2, 13] greater than 1020 µg/mL. The viability at 24 h (Cytotoxicity, MTT assay; Hep G2 (ATCC HB-8065) cells) was 61%.

With `C[N+](C)(C)CCCCCCN(CCCCCC[N+](C)(C)C)c1ccc(/C=C/c2ccc(/C=C/c3ccc(/C=C/c4ccc(N(CCCCCC[N+](C)(C)C)CCCCCC[N+](C)(C)C)cc4)cc3)cc2)cc1` [Formula VV] the IC50 [2, 13] was greater than 128 µg/mL and the viability at 24 h (Cytotoxicity, MTT assay; Hep G2 (ATCC HB-8065) cells) was 64%.

In the case of `CC[N+](C)(C)CCCCOc1cc(/C=C/c2ccc(/C=C/c3cc(OCCCC[N+](C)(C)CC)cc(OCCCC[N+](C)(C)CC)c3)cc2)cc(OCCCC[N+](C)(C)CC)c1.[I-].[I-].[I-].[I-]` [Formula P], the MIC [3] is reported as greater than 64 µg/mL, the MIC (E. faecium 1674620 (VRE)) is reported as 4 µg/mL and the MIC [4] is reported as 8 µg/mL. The MIC [5] was 16 µg/mL, the MIC (E. coli ATCC25922 (WT)) was 8 µg/mL and the MIC [6] was 1 µg/mL. It also gave an MIC [7] of 64 µg/mL, an MIC [8] of 64 µg/mL and an MIC [9] of 2 µg/mL. It also gave an MIC [10] greater than 64 µg/mL, an MIC [11] of 32 µg/mL and an MIC (E. coli K12 (ATCC 47076)) of 16 µg/mL.

Molecule `CCCC[N+](C)(CCCCOc1cc(/C=C/c2ccc(/C=C/c3cc(OCCCC[N+](C)(CCCC)CCOCCOC)cc(OCCCC[N+](C)(CCCC)CCOCCOC)c3)cc2)cc(OCCCC[N+](C)(CCCC)CCOCCOC)c1)CCOCCOC` (stereo not shown) [Formula GG] has an MIC (E. coli K12 (ATCC 47076)) of 32 µg/mL and an IC50 [12] of 77.8 µg/mL.

Molecule `CCCC[N+](C)(C)CCOc1cc(/C=C/c2ccc(/C=C/c3cc(OCC[N+](C)(C)CCCC)cc(OCC[N+](C)(C)CCCC)c3)cc2)cc(OCC[N+](C)(C)CCCC)c1.[I-].[I-].[I-].[I-]` [Formula G] has an MIC [3] of 64 µg/mL, an MIC (E. faecium 1674620 (VRE)) of 1 µg/mL and an MIC [4] of 4 µg/mL. For the same molecule, the MIC [5] was 4 µg/mL, the MIC (E. coli ATCC25922 (WT)) was 1 µg/mL and the MIC [6] was 1 µg/mL. It also gave an MIC [7] of 32 µg/mL, an MIC [8] of 32 µg/mL and an MIC [9] of 2 µg/mL. The MIC [10] was 64 µg/mL, the MIC [11] was 16 µg/mL and the MIC (E. coli K12 (ATCC 47076)) was 4 µg/mL. For the same molecule, the IC50 [2, 13] was 889 µg/mL.

`C[N+](C)(C)CCCCCCOc1cc(/C=C/c2cc(OCCCCCC[N+](C)(C)C)cc(OCCCCCC[N+](C)(C)C)c2)cc(OCCCCCC[N+](C)(C)C)c1` [Formula A] gave an IC50 [2] greater than 128 µg/mL and a viability at 24 h (Cytotoxicity, MTT assay) of 68%.

`CCCCCC[N+](C)(CCCCOc1cc(/C=C/c2ccc(/C=C/c3cc(OCCCC[N+](C)(CCCCCC)CCOCCOCCOC)cc(OCCCC[N+](C)(CCCCCC)CCOCCOCCOC)c3)cc2)cc(OCCCC[N+](C)(CCCCCC)CCOCCOCCOC)c1)CCOCCOCCOC` (stereo not shown) [Formula KK] gave an MIC (E. coli K12 (ATCC 47076)) of 16 µg/mL.

In the case of `CCCCCC[N+](C)(C)CCOc1cc(/C=C/c2ccc(/C=C/c3cc(OCC[N+](C)(C)CCCCCC)cc(OCC[N+](C)(C)CCCCCC)c3)cc2)cc(OCC[N+](C)(C)CCCCCC)c1.[I-].[I-].[I-].[I-]` [Formula H], the MIC (E. coli K12 (ATCC 47076)) is reported as 4 µg/mL and the IC50 [2, 13] is reported as 13 µg/mL.

`C[N+](C)(CCCN)CCCOc1cc(/C=C/c2ccc(/C=C/c3cc(OCCC[N+](C)(C)CCCN)cc(OCCC[N+](C)(C)CCCN)c3)cc2)cc(OCCC[N+](C)(C)CCCN)c1` [Formula PP] gave an MIC (E. coli K12 (ATCC 47076)) of 32 µg/mL and an MIC [1] of 16 µg/mL.
